According to ChEMBL document CHEMBL1201862, “PubChem BioAssay data set” (2004):
Several values for one entry are separate records, joined by “and”; a condition that tells them apart may be missing. Equal entries are not always repeated.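 Compound exposure: 48 hours, 5 concentrations, 96-well plates. At the GI50, growth is halved.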 Activity calls are given as the source filed them. Rule as the data show it: active = GI50 up to about 1.1 µM and inactive = higher.

Experiments:
Test in all cases: inhibition of tumour cell growth, NCI panel, 48 h
BT-549 = test system: BT-549
NCI/ADR-RES = test system: NCI/ADR-RES
OVCAR-3 = test system: OVCAR-3
HCT-116 = test system: HCT-116
HOP-62 = test system: HOP-62
SK-MEL-2 = test system: SK-MEL-2
RXF 393 = test system: RXF 393
DU-145 = test system: DU-145
UO-31 = test system: UO-31
K562 = test system: K562
MCF7 = test system: MCF7
MDA-MB-435 = test system: MDA-MB-435
UACC-62 = test system: UACC-62
ACHN = test system: ACHN
NCI-H226 = test system: NCI-H226
786-0 = test system: 786-0
NCI-H23 = test system: NCI-H23
EKVX = test system: EKVX
UACC-257 = test system: UACC-257
U-251 = test system: U-251
M14 = test system: M14
SNB-75 = test system: SNB-75
CCRF-CEM = test system: CCRF-CEM
SW-620 = test system: SW-620
MDA-N = test system: MDA-N
T47D = test system: T47D
SN12C = test system: SN12C
HCT-15 = test system: HCT-15
SF-295 = test system: SF-295
SR = test system: SR
PC-3 = test system: PC-3
HL-60 = test system: HL-60
COLO 205 = test system: COLO 205
SF-539 = test system: SF-539
HT-29 = test system: HT-29
IGROV-1 = test system: IGROV-1
OVCAR-8 = test system: OVCAR-8
OVCAR-4 = test system: OVCAR-4
HOP-92 = test system: HOP-92
A498 = test system: A498
SNB-19 = test system: SNB-19
A549 = test system: A549
MOLT-4 = test system: MOLT-4
KM12 = test system: KM12
OVCAR-5 = test system: OVCAR-5
SK-OV-3 = test system: SK-OV-3
SK-MEL-28 = test system: SK-MEL-28
NCI-H460 = test system: NCI-H460
RPMI-8226 = test system: RPMI-8226
SK-MEL-5 = test system: SK-MEL-5
Malme-3M = test system: Malme-3M
TK-10 = test system: TK-10
MDA-MB-231 = test system: MDA-MB-231
NCI-H522 = test system: NCI-H522
SF-268 = test system: SF-268
CAKI-1 = test system: CAKI-1
HCC 2998 = test system: HCC 2998
Hs-578T = test system: Hs-578T
LOX IMVI = test system: LOX IMVI

## COc1cc(C2c3cccc4cccc(c34)C3CCC(=O)N32)cc(OC)c1O (centres undefined)
BT-549
  GI50: > 50 µM (inactive)
NCI/ADR-RES
  GI50: > 50 µM (inactive)
OVCAR-3
  GI50: > 50 µM (inactive)
HCT-116
  GI50: > 50 µM (inactive)
HOP-62
  GI50: > 50 µM (inactive)
SK-MEL-2
  GI50: > 50 µM (inactive)
RXF 393
  GI50: > 50 µM (inactive)
DU-145
  GI50: > 50 µM (inactive)
UO-31
  GI50: > 50 µM (inactive)
K562
  GI50: > 50 µM (inactive)
MCF7
  GI50: > 50 µM (inactive)
MDA-MB-435
  GI50: > 50 µM (inactive)
UACC-62
  GI50: > 50 µM (inactive)
ACHN
  GI50: > 50 µM (inactive)
NCI-H226
  GI50: > 50 µM (inactive)
786-0
  GI50: > 50 µM (inactive)
NCI-H23
  GI50: > 50 µM (inactive)
EKVX
  GI50: > 50 µM (inactive)
UACC-257
  GI50: > 50 µM (inactive)
U-251
  GI50: > 50 µM (inactive)
M14
  GI50: > 50 µM (inactive)
SNB-75
  GI50: > 50 µM (inactive)
CCRF-CEM
  GI50: > 50 µM (inactive)
SW-620
  GI50: > 50 µM (inactive)
MDA-N
  GI50: > 50 µM (inactive)
T47D
  GI50: > 50 µM (inactive)
SN12C
  GI50: > 50 µM (inactive)
HCT-15
  GI50: > 50 µM
SF-295
  GI50: > 50 µM (inactive)
SR
  GI50: > 50 µM (inactive)
PC-3
  GI50: > 50 µM (inactive)
HL-60
  GI50: > 50 µM (inactive)
COLO 205
  GI50: > 50 µM (inactive)
SF-539
  GI50: > 50 µM (inactive)
HT-29
  GI50: > 50 µM (inactive)
IGROV-1
  GI50: > 50 µM (inactive)
OVCAR-8
  GI50: > 50 µM (inactive)
OVCAR-4
  GI50: > 50 µM (inactive)
HOP-92
  GI50: > 50 µM (inactive)
A498
  GI50: > 50 µM (inactive)
SNB-19
  GI50: > 50 µM (inactive)
A549
  GI50: 42.7 µM (inactive)
MOLT-4
  GI50: > 50 µM (inactive)
KM12
  GI50: > 50 µM (inactive)
OVCAR-5
  GI50: > 50 µM (inactive)
SK-OV-3
  GI50: > 50 µM (inactive)
SK-MEL-28
  GI50: > 50 µM (inactive)
NCI-H460
  GI50: > 50 µM (inactive)
RPMI-8226
  GI50: > 50 µM (inactive)

## CC(=O)OCC1OC(n2c3c(cc(C#N)c2=S)CCCC3)C(OC(C)=O)C(OC(C)=O)C1OC(C)=O (centres undefined)
SK-MEL-5
  GI50: > 76.4 µM (inactive)
BT-549
  GI50: > 100 µM (inactive)
NCI/ADR-RES
  GI50: > 74.1 µM (inactive)
Malme-3M
  GI50: > 100 µM (inactive)
DU-145
  GI50: > 100 µM (inactive)
UO-31
  GI50: > 100 µM (inactive)
MDA-MB-435
  GI50: > 100 µM (inactive)
ACHN
  GI50: > 64.4 µM (inactive)
NCI-H226
  GI50: > 100 µM (inactive) and > 80 µM (inactive)
NCI-H23
  GI50: > 100 µM (inactive) and 62.5 µM (inactive)
EKVX
  GI50: 70 µM (inactive)
UACC-257
  GI50: > 100 µM (inactive)
TK-10
  GI50: > 100 µM (inactive)
M14
  GI50: > 100 µM (inactive)
MDA-N
  GI50: > 100 µM (inactive)
SN12C
  GI50: > 100 µM (inactive)
HCT-15
  GI50: > 100 µM
MDA-MB-231
  GI50: > 100 µM (inactive)
COLO 205
  GI50: > 100 µM (inactive)
IGROV-1
  GI50: 57.8 µM (inactive)
OVCAR-8
  GI50: > 60.5 µM (inactive)
OVCAR-4
  GI50: > 100 µM (inactive)
A498
  GI50: > 100 µM (inactive)
NCI-H522
  GI50: 42.8 µM (inactive) and 40.8 µM (inactive)
A549
  GI50: > 91.4 µM (inactive)
OVCAR-5
  GI50: > 100 µM (inactive)
SK-MEL-28
  GI50: > 100 µM (inactive)
NCI-H460
  GI50: > 100 µM (inactive) and 50.9 µM (inactive)

## COC(=O)c1cc(CC2Cc3cc4c(cc3C2)CCC4)cc2c1CCC2
SK-MEL-5
  GI50: 33.9 µM (inactive)
NCI/ADR-RES
  GI50: > 100 µM (inactive)
OVCAR-3
  GI50: > 100 µM (inactive)
HCT-116
  GI50: 58.7 µM (inactive)
HOP-62
  GI50: > 100 µM (inactive)
Malme-3M
  GI50: > 100 µM (inactive)
SK-MEL-2
  GI50: 40.4 µM (inactive)
RXF 393
  GI50: 62.2 µM (inactive)
DU-145
  GI50: > 100 µM (inactive)
UO-31
  GI50: > 100 µM (inactive)
K562
  GI50: > 100 µM (inactive)
MCF7
  GI50: 89.1 µM (inactive)
MDA-MB-435
  GI50: 48 µM (inactive)
SF-268
  GI50: > 100 µM (inactive)
ACHN
  GI50: > 100 µM (inactive)
NCI-H226
  GI50: > 100 µM (inactive)
786-0
  GI50: > 100 µM (inactive)
NCI-H23
  GI50: > 100 µM (inactive)
EKVX
  GI50: > 100 µM (inactive)
UACC-257
  GI50: 37.2 µM (inactive)
U-251
  GI50: > 100 µM (inactive)
TK-10
  GI50: > 100 µM (inactive)
M14
  GI50: > 100 µM (inactive)
SNB-75
  GI50: > 100 µM (inactive)
CAKI-1
  GI50: > 100 µM (inactive)
CCRF-CEM
  GI50: 52.5 µM (inactive)
SW-620
  GI50: > 100 µM (inactive)
MDA-N
  GI50: 60.3 µM (inactive)
T47D
  GI50: > 100 µM (inactive)
SN12C
  GI50: > 100 µM (inactive)
HCT-15
  GI50: 67.5 µM
HCC 2998
  GI50: > 100 µM (inactive)
SF-295
  GI50: > 100 µM (inactive)
SR
  GI50: 29.5 µM (inactive)
PC-3
  GI50: 81.8 µM (inactive)
HL-60
  GI50: 56.6 µM (inactive)
MDA-MB-231
  GI50: > 100 µM (inactive)
COLO 205
  GI50: > 100 µM (inactive)
SF-539
  GI50: > 100 µM (inactive)
HT-29
  GI50: 49 µM (inactive)
IGROV-1
  GI50: 97.1 µM (inactive)
Hs-578T
  GI50: > 100 µM (inactive)
OVCAR-8
  GI50: > 100 µM (inactive)
OVCAR-4
  GI50: > 100 µM (inactive)
HOP-92
  GI50: 88.9 µM (inactive)
A498
  GI50: > 100 µM (inactive)
NCI-H522
  GI50: 57.4 µM (inactive)
SNB-19
  GI50: > 100 µM (inactive)
A549
  GI50: > 100 µM (inactive)
MOLT-4
  GI50: 23.7 µM (inactive)
KM12
  GI50: 61.5 µM (inactive)
OVCAR-5
  GI50: > 100 µM (inactive)
SK-OV-3
  GI50: > 100 µM (inactive)
SK-MEL-28
  GI50: > 100 µM (inactive)
NCI-H460
  GI50: > 100 µM (inactive)
RPMI-8226
  GI50: 41 µM (inactive)
LOX IMVI
  GI50: 56.5 µM (inactive)
